# Experimental data published in PubChem BioAssay (NCI).
#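 Briefly, cells in 96-well plates were exposed to five compound concentrations for 48 h, and endpoints were estimated by linear interpolation. TGI is the concentration that stops growth completely.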
# Key:
# Assay in all cases: DTP human tumour cell line panel, 48 h
# OVCAR-5 ovarian = test system: OVCAR-5 ovarian
# SN12C renal = test system: SN12C renal
# M14 melanoma = test system: M14 melanoma
# SNB-19 CNS = test system: SNB-19 CNS
# MDA-MB-435 = test system: MDA-MB-435
# PC-3 prostate = test system: PC-3 prostate
# HT29 colon = test system: HT29 colon
# NCI-H460 lung = test system: NCI-H460 lung
# RXF 393 renal = test system: RXF 393 renal
# A498 renal = test system: A498 renal
# UACC-257 melanoma = test system: UACC-257 melanoma
# ACHN renal = test system: ACHN renal
# SK-OV-3 ovarian = test system: SK-OV-3 ovarian
# U251 CNS = test system: U251 CNS
# KM12 colon = test system: KM12 colon
# MDA-MB-231 breast = test system: MDA-MB-231 breast
# SF-295 CNS = test system: SF-295 CNS
# MOLT-4 leukemia = test system: MOLT-4 leukemia
# K-562 leukemia = test system: K-562 leukemia
# TK-10 renal = test system: TK-10 renal
# CAKI-1 renal = test system: CAKI-1 renal
# HOP-62 NSCLC = test system: HOP-62 NSCLC
# HS 578T breast = test system: HS 578T breast
# SW-620 colon = test system: SW-620 colon
# 786-0 renal = test system: 786-0 renal
# HCC-2998 colon = test system: HCC-2998 colon
# IGROV1 ovarian = test system: IGROV1 ovarian
# SK-MEL-2 melanoma = test system: SK-MEL-2 melanoma
# COLO 205 colon = test system: COLO 205 colon
# NCI-H23 lung = test system: NCI-H23 lung
# SK-MEL-5 melanoma = test system: SK-MEL-5 melanoma
# HOP-92 NSCLC = test system: HOP-92 NSCLC
# SF-268 CNS = test system: SF-268 CNS
# HL-60(TB) leukemia = test system: HL-60(TB) leukemia
# UO-31 renal = test system: UO-31 renal
# CCRF-CEM leukemia = test system: CCRF-CEM leukemia
# SK-MEL-28 melanoma = test system: SK-MEL-28 melanoma
# NCI/ADR-RES ovarian = test system: NCI/ADR-RES ovarian
# HCT-15 colon = test system: HCT-15 colon
# EKVX NSCLC = test system: EKVX NSCLC
# SF-539 CNS = test system: SF-539 CNS
# A549 NSCLC = test system: A549 NSCLC
# MCF7 breast = test system: MCF7 breast
# MDA-N = test system: MDA-N
# MALME-3M melanoma = test system: MALME-3M melanoma
# NCI-H226 lung = test system: NCI-H226 lung
# LOX IMVI melanoma = test system: LOX IMVI melanoma
# SNB-75 CNS = test system: SNB-75 CNS
# HCT-116 colon = test system: HCT-116 colon
# NCI-H522 lung = test system: NCI-H522 lung
# RPMI-8226 leukemia = test system: RPMI-8226 leukemia
# OVCAR-4 ovarian = test system: OVCAR-4 ovarian
# OVCAR-8 ovarian = test system: OVCAR-8 ovarian
# OVCAR-3 ovarian = test system: OVCAR-3 ovarian
# BT-549 breast = test system: BT-549 breast
# SR leukemia = test system: SR leukemia
# UACC-62 melanoma = test system: UACC-62 melanoma
structure (smiles),measurement,setting,value
CN(C)CCCNC(=O)CCNC(=O)c1cc(NC(=O)c2cc(NC(=O)c3cc(NC(=O)CCCNC(=O)c4cc(NC(=O)c5cc(NC(=O)c6nccn6C)cn5C)cn4C)cn3C)cn2C)cn1C,TGI,OVCAR-5 ovarian,> 100 µM
same,TGI,SN12C renal,> 100 µM
same,TGI,M14 melanoma,> 100 µM
same,TGI,SNB-19 CNS,> 100 µM
same,TGI,MDA-MB-435,> 100 µM
same,TGI,PC-3 prostate,> 100 µM
same,TGI,HT29 colon,> 100 µM
same,TGI,NCI-H460 lung,> 100 µM
same,TGI,RXF 393 renal,> 100 µM
same,TGI,A498 renal,> 100 µM
same,TGI,UACC-257 melanoma,> 100 µM
same,TGI,ACHN renal,> 100 µM
same,TGI,SK-OV-3 ovarian,> 100 µM
same,TGI,U251 CNS,> 100 µM
same,TGI,KM12 colon,> 100 µM
same,TGI,MDA-MB-231 breast,> 100 µM
same,TGI,SF-295 CNS,> 100 µM
same,TGI,MOLT-4 leukemia,> 100 µM
same,TGI,K-562 leukemia,> 100 µM
same,TGI,TK-10 renal,> 100 µM
same,TGI,CAKI-1 renal,> 100 µM
same,TGI,HOP-62 NSCLC,> 100 µM
same,TGI,HS 578T breast,> 100 µM
same,TGI,SW-620 colon,> 100 µM
same,TGI,786-0 renal,> 100 µM
same,TGI,HCC-2998 colon,> 100 µM
same,TGI,IGROV1 ovarian,> 100 µM
same,TGI,SK-MEL-2 melanoma,> 100 µM
same,TGI,COLO 205 colon,> 100 µM
same,TGI,NCI-H23 lung,> 100 µM
same,TGI,SK-MEL-5 melanoma,> 100 µM
same,TGI,HOP-92 NSCLC,> 100 µM
same,TGI,SF-268 CNS,> 100 µM
same,TGI,HL-60(TB) leukemia,> 100 µM
same,TGI,UO-31 renal,> 100 µM
same,TGI,CCRF-CEM leukemia,> 100 µM
same,TGI,SK-MEL-28 melanoma,> 100 µM
same,TGI,NCI/ADR-RES ovarian,> 100 µM
same,TGI,HCT-15 colon,> 100 µM
same,TGI,EKVX NSCLC,> 100 µM
same,TGI,SF-539 CNS,> 100 µM
same,TGI,A549 NSCLC,> 100 µM
same,TGI,MCF7 breast,> 100 µM
same,TGI,MDA-N,> 100 µM
same,TGI,MALME-3M melanoma,> 100 µM
same,TGI,NCI-H226 lung,> 100 µM
same,TGI,LOX IMVI melanoma,> 100 µM
same,TGI,SNB-75 CNS,> 100 µM
same,TGI,HCT-116 colon,> 100 µM
same,TGI,NCI-H522 lung,> 100 µM
same,TGI,RPMI-8226 leukemia,> 100 µM
same,TGI,OVCAR-4 ovarian,> 100 µM
same,TGI,OVCAR-8 ovarian,> 100 µM
same,TGI,OVCAR-3 ovarian,> 100 µM
O=C1Nc2c(Cl)cc(Cl)cc2/C1=N/N=C/c1ccccc1O,TGI,OVCAR-5 ovarian,48.7 µM
same,TGI,SN12C renal,34.9 µM
same,TGI,M14 melanoma,49.8 µM
same,TGI,SNB-19 CNS,> 100 µM
same,TGI,MDA-MB-435,51.6 µM
same,TGI,PC-3 prostate,53.5 µM
same,TGI,HT29 colon,40.4 µM
same,TGI,NCI-H460 lung,34.4 µM
same,TGI,RXF 393 renal,50.7 µM
same,TGI,A498 renal,36.9 µM
same,TGI,UACC-257 melanoma,66.3 µM
same,TGI,ACHN renal,> 100 µM
same,TGI,SK-OV-3 ovarian,88.1 µM
same,TGI,U251 CNS,36.1 µM
same,TGI,KM12 colon,68.4 µM
same,TGI,MDA-MB-231 breast,54.7 µM
same,TGI,SF-295 CNS,47.7 µM
same,TGI,MOLT-4 leukemia,62.5 µM
same,TGI,K-562 leukemia,68.1 µM
same,TGI,TK-10 renal,> 100 µM
same,TGI,CAKI-1 renal,47.4 µM
same,TGI,HOP-62 NSCLC,41.3 µM
same,TGI,HS 578T breast,72.2 µM
same,TGI,SW-620 colon,59.3 µM
same,TGI,786-0 renal,40.9 µM
same,TGI,HCC-2998 colon,34.3 µM
same,TGI,IGROV1 ovarian,85.8 µM
same,TGI,SK-MEL-2 melanoma,39.9 µM
same,TGI,COLO 205 colon,31.4 µM
same,TGI,NCI-H23 lung,40.3 µM
same,TGI,BT-549 breast,35.7 µM
same,TGI,SK-MEL-5 melanoma,47.5 µM
same,TGI,SR leukemia,46.5 µM
same,TGI,HOP-92 NSCLC,62.8 µM
same,TGI,HL-60(TB) leukemia,49.7 µM
same,TGI,UO-31 renal,> 100 µM
same,TGI,CCRF-CEM leukemia,58.7 µM
same,TGI,SK-MEL-28 melanoma,40.3 µM
same,TGI,NCI/ADR-RES ovarian,51.7 µM
same,TGI,HCT-15 colon,51 µM
same,TGI,EKVX NSCLC,91.5 µM
same,TGI,SF-539 CNS,41.6 µM
same,TGI,UACC-62 melanoma,32.1 µM
same,TGI,A549 NSCLC,88.4 µM
same,TGI,MCF7 breast,94.2 µM
same,TGI,MDA-N,35.1 µM
same,TGI,MALME-3M melanoma,88.4 µM
same,TGI,NCI-H226 lung,74.6 µM
same,TGI,LOX IMVI melanoma,31.8 µM
same,TGI,SNB-75 CNS,48.2 µM
same,TGI,HCT-116 colon,32.1 µM
same,TGI,OVCAR-4 ovarian,> 100 µM
same,TGI,OVCAR-8 ovarian,> 100 µM
same,TGI,OVCAR-3 ovarian,34 µM
